Measurements: patent US7459583B2, “Method for providing a cathartic effect” (Sucampo AG, priority 2001, dated 2008)

Tested on: Male Wistar rats
Experiment: Enteropooling effect (intestinal fluid volume) in fasted rats
Format: in vivo, rat
Details: intestinal fluid volume 30 min after administration, dose yielding a 50% increase relative to vehicle control; for ED50: Rattus norvegicus, 0.5 h
Procedure: Male Wistar rats (Crj Wistar Rat, body weight: 180-200 g) were used. Animals were fasted for 24 hours with free access to water. 5 mL/kg of distilled water containing the compound 5, PGE1 or PGE2 was orally administrated (p.o.), or 2 mL/kg of physiological saline containing the compound 5 was injected intravenously (i.v.) to the animals. Thirty minutes after the administration, the animals were euthanized by cervical dislocation, and the abdominal cavity was opened surgically. The intestinal fluid was collected and its volume was measured. The dose of test substance yielding a 50% increase in intestinal fluid volume relative to the control group, which was received the vehicle only, was defined as the ED50 value.

Row | SMILES | Enteropooling ED50 (p.o. in distilled water) [µg/kg] | ED50 (iv, i.v. in physiological saline) [µg/kg] | ED50 (po, p.o. in distilled water) [µg/kg]
1 | CCCCC[C@H](O)/C=C/[C@H]1[C@H](O)CC(=O)[C@@H]1CCCCCCC(=O)O [PGE1] | 420 | – | –
2 | CCCCC(F)(F)C(O)CC[C@H]1[C@H](O)CC(=O)[C@@H]1CCCCCCC(=O)O (stereo partly shown) [Compound 5, 13,14-dihydro-15RS-hydroxy-16,16-difluoro-PGE1] | – | 0.88 | 0.6
3 | CCCCC[C@H](O)/C=C/[C@H]1[C@H](O)CC(=O)[C@@H]1C/C=C\CCCC(=O)O [PGE2] | 130 | – | –
